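How tested: cells in 96-well plates exposed to compound for 48 hours at five concentrations. The concentration for 50% growth inhibition is given as GI50. At the TGI there is no net growth.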 Where only a bound is given, the exact number is not on record here.

Among the test systems are 786-0 renal; HL-60(TB) leukemia; HOP-92 NSCLC; MCF7 breast; NCI-H522 lung; SF-295 CNS; SK-OV-3 ovarian; SN12C renal; SNB-75 CNS; SW-620 colon.
What all share (assay): NCI anticancer screen, dose series, 48 h

Consider `COc1ccc2c(c1)[C@@]1(C)CCC3c4ccc(O)cc4CCC3C1C2` (some centres undefined), for which the GI50 was 15.3 µM in the experiment with 786-0 renal; 18.1 µM in the experiment on HL-60(TB) leukemia; 17.2 µM with HOP-92 NSCLC; 15.1 µM in the experiment on MCF7 breast; 16.4 µM in the experiment on NCI-H522 lung; 17.3 µM in the experiment on SF-295 CNS. Also, the GI50 in the experiment with SK-OV-3 ovarian was 15.7 µM; in the experiment with SN12C renal, 16.8 µM; with SNB-75 CNS it was 16.6 µM; with SW-620 colon, 16.9 µM. Moreover, the TGI with 786-0 renal was found to be 29.2 µM; in the experiment with HL-60(TB) leukemia, 39.1 µM; with HOP-92 NSCLC, 33.9 µM; in the experiment on MCF7 breast it was 30.8 µM; in the experiment with NCI-H522 lung, 37.6 µM; in the experiment with SF-295 CNS it was 33.8 µM. The TGI in the experiment on SK-OV-3 ovarian was 29.6 µM; in the experiment on SN12C renal, 32 µM; with SNB-75 CNS, 30.9 µM; in the experiment on SW-620 colon, 36.1 µM.

`COc1ccc(-c2cc(-c3nnc(SCC(=O)Nc4ccc(C(C)=O)cc4)o3)c3ccccc3n2)cc1`: the GI50 in the experiment with 786-0 renal was 1.94 µM; with HL-60(TB) leukemia, above 100 µM; in the experiment on HOP-92 NSCLC it was 9.1 µM; with MCF7 breast, above 100 µM; with NCI-H522 lung, 30.2 µM; in the experiment on SF-295 CNS, 26.4 µM. For the same compound, the GI50 was 27 µM with SK-OV-3 ovarian, above 100 µM in the experiment with SN12C renal, 3.65 µM with SNB-75 CNS and above 100 µM in the experiment with SW-620 colon. Also, the TGI with 786-0 renal is 4.95 µM; in the experiment on HL-60(TB) leukemia, above 100 µM; in the experiment with HOP-92 NSCLC, 37.5 µM; in the experiment on MCF7 breast, above 100 µM; in the experiment on NCI-H522 lung, above 100 µM; in the experiment on SF-295 CNS, above 100 µM. Besides, the TGI in the experiment with SK-OV-3 ovarian was 91.6 µM; in the experiment with SN12C renal, above 100 µM; in the experiment with SNB-75 CNS, 22.6 µM; with SW-620 colon, above 100 µM.

As for `Cc1ccc(C[P+](c2ccccc2)(c2ccccc2)c2ccccc2)cc1`, the GI50 with 786-0 renal was 1.71 µM; in the experiment with HL-60(TB) leukemia, 0.455 µM; in the experiment on HOP-92 NSCLC, 0.768 µM; with MCF7 breast, 0.701 µM; with NCI-H522 lung, 0.75 µM; in the experiment with SF-295 CNS, 0.99 µM. The GI50 with SK-OV-3 ovarian was 2.57 µM; with SN12C renal, 1.79 µM; in the experiment with SNB-75 CNS, 1.55 µM; in the experiment on SW-620 colon it was 1.36 µM. The TGI in the experiment on 786-0 renal is 8.02 µM; in the experiment with HL-60(TB) leukemia it was 3.36 µM; in the experiment on HOP-92 NSCLC, 22.2 µM; in the experiment on MCF7 breast it was above 33 µM; in the experiment on SF-295 CNS, 8.11 µM; with SK-OV-3 ovarian, above 26.6 µM. In addition, the values for the TGI in the experiment with SN12C renal, in the experiment with SNB-75 CNS and with SW-620 colon were 23.7 µM, 18.8 µM and 12.2 µM, respectively.

On to `COc1cc2ncn(-c3cc(OCc4ccccc4S(C)(=O)=O)c(C#N)s3)c2cc1OC`, for which the GI50 in the experiment with 786-0 renal was above 25 µM; in the experiment on HL-60(TB) leukemia, above 25 µM; in the experiment on HOP-92 NSCLC, above 14.2 µM; in the experiment with MCF7 breast, above 25 µM; in the experiment with NCI-H522 lung, above 25 µM; in the experiment on SF-295 CNS, above 25 µM. Moreover, the GI50 is above 16.1 µM with SK-OV-3 ovarian, above 25 µM in the experiment on SN12C renal, 8.19 µM in the experiment on SNB-75 CNS and above 25 µM with SW-620 colon. Besides, the TGI with 786-0 renal, in the experiment with HL-60(TB) leukemia, in the experiment with HOP-92 NSCLC, with MCF7 breast, with NCI-H522 lung and in the experiment with SF-295 CNS was above 25 µM each time. The TGI was above 25 µM in the experiment on SK-OV-3 ovarian, above 25 µM with SN12C renal, above 22.6 µM in the experiment with SNB-75 CNS and above 25 µM in the experiment on SW-620 colon.

As for `Cc1ccc(/C(=C/C=C(C#N)C#N)Sc2ccccn2)cc1`, the GI50 with 786-0 renal was 2.15 µM; in the experiment on HL-60(TB) leukemia, 0.328 µM; in the experiment with HOP-92 NSCLC, 12.6 µM; in the experiment with MCF7 breast it was 4.62 µM; in the experiment with NCI-H522 lung, 6.49 µM; with SF-295 CNS, 8.72 µM. The GI50 is 19.6 µM in the experiment on SK-OV-3 ovarian, 1.91 µM with SN12C renal, 5.18 µM in the experiment with SNB-75 CNS and 0.474 µM in the experiment with SW-620 colon. The TGI with 786-0 renal is 5.64 µM; with HL-60(TB) leukemia, 3.72 µM; with HOP-92 NSCLC it was 31.7 µM; in the experiment with MCF7 breast it was 36 µM; in the experiment with NCI-H522 lung, 19.6 µM; in the experiment with SF-295 CNS it was 22.8 µM. Also, the TGI in the experiment on SK-OV-3 ovarian worked out at 65.8 µM; in the experiment on SN12C renal, 4.72 µM; in the experiment with SNB-75 CNS, 18.4 µM; in the experiment with SW-620 colon, 1.96 µM.

Turning to `O=C(NC1(C(=O)O)CC1c1ccccc1)c1ccccc1` (centres undefined), the TGI with 786-0 renal, in the experiment with HL-60(TB) leukemia, in the experiment with HOP-92 NSCLC, with MCF7 breast, in the experiment on NCI-H522 lung and with SF-295 CNS was above 100 µM in each case. For the same compound, the TGI with SK-OV-3 ovarian, with SN12C renal, in the experiment with SNB-75 CNS and in the experiment with SW-620 colon was above 100 µM each time.

Consider `CN(C)S(=O)(=O)c1ccc(Nc2ccc(O)c3c2C(=O)c2c([N+](=O)[O-])ccc(O)c2C3=O)cc1`, for which the TGI with 786-0 renal, with HL-60(TB) leukemia, in the experiment with HOP-92 NSCLC, in the experiment on MCF7 breast, in the experiment on NCI-H522 lung and in the experiment on SF-295 CNS was above 100 µM in each case. Besides, the TGI in the experiment on SK-OV-3 ovarian, with SN12C renal, in the experiment with SNB-75 CNS and in the experiment with SW-620 colon was above 100 µM in each case.

On to `COc1cc2c(cc1OCCCN1CCN(c3cc(=O)oc4c(C)c(OC)ccc34)CC1)N=C[C@@H]1CCCN1C2=O`, for which the GI50 with 786-0 renal was 1.05 µM; in the experiment on HL-60(TB) leukemia, 0.456 µM; in the experiment on HOP-92 NSCLC it was 0.329 µM; with MCF7 breast it was 0.787 µM; in the experiment on NCI-H522 lung, 0.126 µM; in the experiment on SF-295 CNS it was 2.49 µM. Further, the GI50 in the experiment on SK-OV-3 ovarian is 10.2 µM; with SN12C renal it was 1.6 µM; in the experiment with SNB-75 CNS, 0.866 µM; with SW-620 colon it was 1.81 µM. Also, the TGI in the experiment with 786-0 renal was 9.62 µM; with HL-60(TB) leukemia, 3.83 µM; with HOP-92 NSCLC, 1.81 µM; in the experiment with MCF7 breast, above 39.7 µM; in the experiment on NCI-H522 lung, 1.93 µM; in the experiment with SF-295 CNS, above 30.4 µM. In addition, the TGI is above 78.4 µM in the experiment on SK-OV-3 ovarian, 6.51 µM in the experiment on SN12C renal, 3.22 µM in the experiment on SNB-75 CNS and above 100 µM in the experiment on SW-620 colon.
